For one test, the target named is T1, TLR-4 (Homo sapiens, UniProt O00206).
T1 construct: endogenous in cells; host or cells: osteoarthritic synoviocytes (synovial fibroblast cells)
Kind of test: Inhibition of TLR-4 receptor: IL-8 expression by osteoarthritic synoviocytes. It is filed as cell-based. Particulars: 1 hour pre-treatment with CLI-095 (500 nM, 1 and 2.5 μM), then 24 hours Coll2-1 at 4.5 nmol. From the text: (§1) 1.4 RNA extraction and Real Time Reverse Transcriptase-Polymerase Chain Reaction (RT PCR). Total RNA were extracted using the RNeasy Mini Kit (Qiagen, Netherlands) and were reverse transcribed with SuperScript III Reverse Transcriptase (Invitrogen, Belgium) according to the manufacturer's instructions. The cDNAs were quantified by real-time quantitative PCR using the Rotor Gene instrument (Qiagen, Venlo, Netherlands) and the SYBR Premix Ex Taq kit (Takara, Verviers, Belgium). The level of gene expression was determined by interpolation with a standard curve. To standardize mRNA levels, HPRT, a house keeping gene, was amplified as an internal control. The oligonucleotide primers sequences were as follow: HPRT forward, 5′-[…]-3′ (SEQ ID NO: 2); HPRT reverse, 5′-TGCCTGACCAAGGAAAGC-3′ (SEQ ID NO: 3); TSP-1 forward, 5′-CAGACCGCATTGGAGATAC-3′ (SEQ ID NO: 4); TSP-1 reverse, 5′-[…]-3′ (SEQ ID NO: 5); VEGF forward, 5′-TGCCTTGCTGCTCTAC-3′ (SEQ ID NO: 6); VEGF reverse, 5′-CACACAGGATGGCTTGAA-3′ (SEQ ID NO: 7); IL-6 forward, 5′-AAACAAATTCGGTACATCCTCG-3′ (SEQ ID NO: 8); IL-6 reverse, 5′-CCA GGC AAG TCT CCT CAT-3′ (SEQ ID NO: 9); IL-8 forward, 5′-GGAACCATCTCACTGTGTGTAA-3′ (SEQ ID NO: 10); IL-8 reverse, 5′-TGGAAAGGTTTGGAGTATGTCT-3′ (SEQ ID NO: 11).
Inhibition of TLR-4 receptor. […]

Another test deals with NF-κB. Kind of test: NF-κB activation, Western blotting of phospho-p65 and phospho-IκBα. The settings on record: oxidative stress inhibitors: apocynin 0.2 mM and diphenyleneiodonium 6.35 10^−2 mM. It is filed as cell-based. As to the method: Western blotting. Cells were collected at 4° C. and lysed on ice in 50 μl of buffer (25 mM Hepes, 150 mM NaCl, 0.5% Triton X-100, 10% glycerol, and 1 mM dithiothreitol) containing protease and phosphatase inhibitors. After incubation at 4° C. for 30 minutes, lysates were then centrifugated at 14,000 g for 30 minutes at 4° C. to remove insoluble debris. Protein concentrations were determined using BCA assay. Total protein extracts (10 μg) were fractioned by electrophoresis on a polyacrylamide gel (10%) and transferred onto a PVDF membrane. Membrane were blocked for 1 h in TBS-Tween containing 2% bovine serum albumin (phosphor-NF-κB p65 and phospho-IκBα). Membranes were then incubated overnight at 4° C. with primary antibodies. Anti-rabbit phospho-NF-κB p65 (1:1000 dilution), anti-rabbit phospho-IκBα (1:1000 dilution) were used. Horse-radish peroxidase (HRP)-linked anti-rabbit IgG antibody (1:2000 dilution) was used as secondary antibody.

The test system of test [1] is OA synovial fibroblast cells. Kind of test: Intracellular H2O2 production in OA synovial fibroblast cells. It is filed as cell-based, human. The settings on record: 24 hours. As to the method: (§2) 1.1 Patients. Synovial tissue samples were obtained from 10 patients (8 women, 2 man; mean age 70 +/−6 years) with osteoarthritis (OA) of the knee at the time of total knee joint replacement surgery. All the subjects provided their informed consent.
(§3) 1.2 Isolation and culture of synovial cells. Synovium biopsies were digested is with collagenase from Clostridium histolyticum, Type IA (1 mg/ml) (Sigma-Aldrich, Saint-Louis, USA) and 0.25% trypsin (Sigma Aldrich, Saint Louis, USA) with 0.68 mM EDTA in Tris buffer 0.1M, pH 7.4 in complete medium (CM) (DMEM (Dulbecco's Modified Eagle's Medium) Low Glucose supplemented with 10 mM HEPES, 100 U/ml penicillin, 100 μg/ml streptomycin, 2 mM glutamine and 10% fetal calf serum (Lonza, Verviers, Belgium)) for 1 hour at 37° C. The cells suspensions were passed through a 70-μm filter to remove any undigested tissue. The filtered cells suspensions were then collected by centrifugation at 800 g and were cultured in culture flasks. After 24 hours, medium was changed to eliminate non adherent cells. Synovial fibroblasts cells (SFC) were used after three passages.
(§4) 1.3 Treatment of synovial fibroblast cells. Cells were seeded into a six-well plate at the density of 2×10^5 cells/well in 2 ml of CM. When the cells reached confluence, the CM was replaced with 1% serum medium for 24 h to keep the cells quiescent. Cells were incubated for 24 hours with or without peptides Coll2-1 (^108HRGYPGLDG^116; 0.45 and 4.5 nmol) or Coll2-1NO2 (^108HRGYPGLDG-NO2^116; 4 and 40 pmol) at a range of concentrations found in the blood of osteoarthritic patients.
1.5 Intracellular H2O2 and O2^∘^− productions. Levels of intracellular superoxide anion (O2^∘^−) and hydrogen peroxide (H2O2) were assessed spectrofluorimetrically by oxidation of specific probes: dihydroethidium (Molecular Probes, Leiden, The Netherlands) and H2DCFH-DA (Molecular Probes, Leiden, The Netherlands) respectively. Synovial cells seeded on 96-well plates (8×10^3 cells per well) were washed once with phosphate-buffered saline and then incubated with 50 μL of phosphate-buffered saline containing either 250 μM dihydroethidium or 200 μM H2DCFH-DA. The fluorescence intensity was measured every hour for 6 hours. The levels of O2^∘^− or H2O2 are expressed in arbitrary unit/living cell. The numbers of adherent cells were measured by crystal violet assay.

The test system of test [2] is OA synovial fibroblast cells. Kind of test: Intracellular GSH assay in OA synovial fibroblast cells. It is filed as cell-based, human. Particulars: Coll2-1NO2 at 4 and 40 pmol, 24 hours. As to the method:
as §2
as §3, with “passages. […]” for “passages.”
1.6 GSH assay. Levels of intracellular GSH were assessed by monoclorobimane staining. […] The fluorescence intensities were measured at […] using excitation and emission wavelengths of 380 and 485 nm, respectively. The intracellular GSH level was expressed as arbitrary units of fluorescence intensity.

Test [3] has as its system OA synovial fibroblast cells. Kind of test: NO production in OA synovial fibroblast cells. It is filed as cell-based, human. Particulars: Coll2-1 (0.45 and 4.5 nmol) or Coll2-1NO2 (4 and 40 pmol), 24 hours. As to the method:
as §2
as §3, with “passages. […]” for “passages.”
1.7 NO production. Nitric oxide production was evaluated using a DAF2-DA fluorescent probe (Molecular Probes, Leiden, The Netherlands). […] The fluorescence intensity was measured every hour for 6 hours. […] The numbers of adherent cells were measured by cristal violet assay.

In a further test the test system is TSP1. Kind of test: TSP1 mRNA expression by Real Time PCR in OA synovial fibroblast cells. The settings on record: 24 hours. It is filed as cell-based, human. As to the method: as §4, §1
The test system of another test is VEGF. Kind of test: VEGF mRNA expression by Real Time PCR in OA synovial fibroblast cells. It is filed as cell-based, human. Particulars: increasing concentrations: Coll2-1 (0.45 and 4.5 nmol) or Coll2-1NO2 (4 and 40 pmol), 24 hours. As to the method: as §4
(§5) 1.4 RNA extraction and Real Time Reverse Transcriptase-Polymerase Chain Reaction (RT PCR). Total RNA were extracted using the RNeasy Mini Kit (Qiagen, Netherlands) and were reverse transcribed with SuperScript III Reverse Transcriptase (Invitrogen, Belgium) according to the manufacturer's instructions. The cDNAs were quantified by real-time quantitative PCR using the Rotor Gene instrument (Qiagen, Venlo, Netherlands) and the SYBR Premix Ex Taq kit (Takara, Verviers, Belgium). The level of gene expression was determined by interpolation with a standard curve. To standardize mRNA levels, HPRT, a house keeping gene, was amplified as an internal control. […]
For orientation: In qPCR the cycle at which signal appears reflects the starting amount.

The subject of the next test is IL-8. Kind of test: IL-8 mRNA expression by Real Time PCR in OA synovial fibroblast cells. It is filed as cell-based, human. Particulars: increasing concentrations: Coll2-1 (0.45 and 4.5 nmol) or Coll2-1NO2 (4 and 40 pmol), 24 hours. As to the method: as §4, §1
In a further test the test system is IL-6. Kind of test: IL-6 mRNA expression by Real Time PCR in OA synovial fibroblast cells. It is filed as cell-based, human. The settings on record: increasing concentrations of peptide, 24 hours. As to the method: as §4, §5

Square brackets hold non-standard residues; d marks the D form. Ends that are not written are not given here. Tyr(3-NO2) = N[C@@H](Cc1ccc(O)c([N+](=O)[O-])c1)C(=O)O

T1 sequence (O00206 24-839): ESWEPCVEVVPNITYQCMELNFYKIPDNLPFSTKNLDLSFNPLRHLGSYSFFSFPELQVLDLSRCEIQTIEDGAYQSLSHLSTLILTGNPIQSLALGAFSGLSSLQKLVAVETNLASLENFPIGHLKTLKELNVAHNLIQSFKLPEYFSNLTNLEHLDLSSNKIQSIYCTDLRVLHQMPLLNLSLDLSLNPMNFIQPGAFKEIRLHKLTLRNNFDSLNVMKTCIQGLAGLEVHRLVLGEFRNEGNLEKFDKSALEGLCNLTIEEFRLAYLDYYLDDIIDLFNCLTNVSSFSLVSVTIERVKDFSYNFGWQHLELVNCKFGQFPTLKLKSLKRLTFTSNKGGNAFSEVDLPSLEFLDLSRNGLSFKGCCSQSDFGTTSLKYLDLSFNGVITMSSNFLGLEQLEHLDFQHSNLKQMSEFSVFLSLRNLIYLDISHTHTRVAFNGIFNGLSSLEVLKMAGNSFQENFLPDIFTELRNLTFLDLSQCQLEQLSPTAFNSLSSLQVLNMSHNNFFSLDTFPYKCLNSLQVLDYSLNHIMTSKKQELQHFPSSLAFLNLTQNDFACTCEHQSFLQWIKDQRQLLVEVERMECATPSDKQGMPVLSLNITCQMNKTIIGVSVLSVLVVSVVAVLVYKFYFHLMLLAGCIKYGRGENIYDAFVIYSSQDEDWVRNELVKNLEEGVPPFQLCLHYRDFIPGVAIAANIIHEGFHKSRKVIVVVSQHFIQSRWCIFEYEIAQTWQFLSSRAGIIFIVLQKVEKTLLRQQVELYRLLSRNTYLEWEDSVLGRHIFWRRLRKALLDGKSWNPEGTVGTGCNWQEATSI

Take `CCOC(=O)C1=CCCC[C@H]1S(=O)(=O)Nc1ccc(F)cc1Cl` [CLI-095]: on TLR-4, the “IL-8 expression by osteoarthritic synoviocytes in the presence of Coll2-1” value is reported as “decrease”.
Consider `COc1cc(C(C)=O)ccc1O` [apocynin], for which, in the test on NF-κB, the “Coll2-1 induced IκBα degradation” value is reported as “decreased”; the “Coll2-1 induced phosphorylation and translocation of p65” value is “inhibited”.
For `c1ccc2c(c1)[I+]c1ccccc1-2` [diphenyleneiodonium], in that order: “decreased” and “inhibited”.
On to “HRGY(NO2)PGLDG (HRG[Tyr(3-NO2)]PGLDG) [Coll2-1NO2, nitrated form of the Coll2-1 peptide]”, for which the “intracellular production of H2O2” value in test [1] (Coll2-1NO2 at 4 pmol) and in test [1] (Coll2-1NO2 at 40 pmol) was “significantly increased” each time. Also, the “intracellular level of GSH” value in test [2] is listed as “significant decrease”. Further, in [3], the “production of NO (nitric oxide)” value was “decreased significantly”. Also, the “decrease of TSP1 expression, significance” value in the test with TSP1 (Coll2-1NO2 at 40 pmol) is on record as “significant”. Further, the TSP1 expression result in the test on TSP1 (increasing concentrations: Coll2-1 (0.45 and 4.5 nmol) or Coll2-1NO2 (4 and 40 pmol)) is “decreased”. In addition, in the test with VEGF, the VEGF expression entry is “tended to increase”. The IL-8 expression entry in the test with IL-8 is listed as “increased”. The IL-6 expression result with IL-6 was “increased”.
